Legend:
Format in all cases: biochemical
human cathepsin L (CatL) = human cathepsin L (CatL) (Homo sapiens (Human), UniProt P07711); experiment: CatL functional enzyme assay; settings: read-out: hCatL, inhibition [%] at 31.6 μM
Experimental: (§1) Reference and test compounds were assayed for inhibitory potency (IC50) against human cathepsins using the following assay setups:
(§2) Recombinant human cathepsins (CatS, CatK, CatL) were purchased from a Enzo Life Sciences. All assays were carried out in 96-well format using a buffer of 50 mM KH2PO4, 50 mM NaCl, 2 mM EDTA, 0.5 mM DTT and 1% Triton-X-100, pH 6.5 for Cathepsin S and a buffer of 50 mM NaOAc, 10 mM EDTA, 1 mM DTT and 0.01% Triton-X-100, pH 5.5 for CatK/L/B. For CatS, the enzyme (0.0007 mU/well) was incubated with fluorogeninc substrate (Z-VVR-AMC, 5 μM) at RT for 10 min. For CatK the enzyme (0.00175 mU/well) was incubated with fluorogeninc substrate (Z-FR-AMC, 40 μM) at RT for 10 min. For CatL, the enzyme (0.000874 mU/well) was incubated with fluorogeninc substrate (Z-VVR-AMC, 40 μM) at RT for 10 min. Flourogenic substrate turnover was detected using a microplate reader (Synergy™ H4, BioTek). Ki values were calculated using the Cheng Prusoff equation (Cheng & Prosoff 1973).

human cathepsin K (CatK) = human cathepsin K (CatK) (Homo sapiens (Human), UniProt P43235); experiment: CatK functional enzyme assay; settings: recombinant human CatK, substrate Z-FR-AMC 40 μM, pH 5.5; Ki by Cheng Prusoff equation; read-out: hCatK, Ki
human cathepsin K (CatK), sequence (P43235 115-329): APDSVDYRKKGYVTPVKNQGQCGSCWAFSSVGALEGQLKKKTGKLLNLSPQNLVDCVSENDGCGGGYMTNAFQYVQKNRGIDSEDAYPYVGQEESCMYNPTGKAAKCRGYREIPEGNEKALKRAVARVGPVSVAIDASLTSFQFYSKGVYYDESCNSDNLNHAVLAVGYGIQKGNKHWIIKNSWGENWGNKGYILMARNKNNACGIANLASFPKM
Experimental: as §1, §2

human cathepsin S (CatS) = human cathepsin S (CatS) (Homo sapiens (Human), UniProt P25774); experiment: CatS functional enzyme assay; settings: for Selectivity Ki(hCatS)/Ki(hCatK): ratio Ki(hCatS)/Ki(hCatK); for Ki: recombinant human CatS, substrate Z-VVR-AMC 5 μM, pH 6.5, Ki by Cheng Prusoff equation, read-out: hCatS, Ki; for inhibition at 10 µM: read-out: hCatS, inhibition [%] at 10 μM
human cathepsin S (CatS), sequence (P25774 115-331): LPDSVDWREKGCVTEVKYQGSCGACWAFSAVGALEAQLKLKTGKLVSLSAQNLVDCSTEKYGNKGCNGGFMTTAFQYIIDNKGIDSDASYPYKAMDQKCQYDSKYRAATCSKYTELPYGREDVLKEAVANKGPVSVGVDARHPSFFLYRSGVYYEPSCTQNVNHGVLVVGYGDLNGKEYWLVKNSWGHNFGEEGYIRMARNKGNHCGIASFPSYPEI
Experimental: as §2, with “Reference and test compounds were assayed for inhibitory potency (IC50) against human cathepsins using the following assay setups: Recombinant” for “Recombinant”, “All assays were carried out in 96-well format using a buffer of 50 mM KH2PO4, 50 mM NaCl, 2 mM EDTA, 0.5 mM DTT and 1% Triton-X-100, pH 6.5 for Cathepsin S and a buffer of 50 mM NaOAc, 10 mM EDTA, 1 mM DTT and 0.01% Triton-X-100, pH 5.5 for CatK/L/B.” left out

human cathepsin L (CatL), sequence (P07711 114-333): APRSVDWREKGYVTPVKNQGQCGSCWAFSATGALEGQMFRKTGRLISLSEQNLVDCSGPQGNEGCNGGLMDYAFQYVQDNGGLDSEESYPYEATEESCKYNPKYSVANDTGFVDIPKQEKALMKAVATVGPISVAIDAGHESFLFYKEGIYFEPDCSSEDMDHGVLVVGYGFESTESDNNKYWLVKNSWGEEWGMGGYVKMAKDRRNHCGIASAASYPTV

SMILES	inhibition at 31.6 µM (human cathepsin L (CatL))	Ki (human cathepsin K (CatK))	Selectivity Ki(hCatS)/Ki(hCatK) (human cathepsin S (CatS))	Ki (human cathepsin S (CatS))	inhibition at 10 µM (human cathepsin S (CatS))
O=C(N[C@H](C(=O)N1C[C@H](Cl)[C@H]2OCC(=O)[C@H]21)C1CCCCC1)c1ncc(-c2ccncc2)s1 [Example 49, N-((S)-2-((3aS,6S,6aS)-6-chloro-3-oxotetrahydro-2H-furo[3,2-b]pyrrol-4(5H)-yl)-1-cyclohexyl-2-oxoethyl)-5-(pyridin-4-yl)thiazole-2-carboxamide]	4%	9 nM	41.8	376 nM	–
O=C(N[C@H](C(=O)N1C[C@H](Cl)[C@H]2OCC(=O)[C@H]21)C1CCCCC1)c1ccc(-c2ccncn2)o1 [Example 27, N-((S)-2-((3aS,6S,6aS)-6-chloro-3-oxotetrahydro-2H-furo[3,2-b]pyrrol-4(5H)-yl)-1-cyclohexyl-2-oxoethyl)-5-(pyrimidin-4-yl)furan-2-carboxamide]	18%	–	2.7	–	–
Cc1nc(-c2cnccn2)sc1C(=O)N[C@H](C(=O)N1C[C@H](Cl)[C@H]2OCC(=O)[C@H]21)C1CCCCC1 [Example 22, N-((S)-2-((3aS,6S,6aS)-6-chloro-3-oxotetrahydro-2H-furo[3,2-b]pyrrol-4(5H)-yl)-1-cyclohexyl-2-oxoethyl)-4-methyl-2-(pyrazin-2-yl)thiazole-5-carboxamide]	17%	37 nM	–	–	73%
Cc1cc(-c2ccc(C(=O)N[C@H](C(=O)N3C[C@H](Cl)[C@H]4OCC(=O)[C@H]43)C3CCCCC3)s2)c(C)nn1 [Example 89, N-((S)-2-((3aS,6S,6aS)-6-chloro-3-oxotetrahydro-2H-furo[3,2-b]pyrrol-4(5H)-yl)-1-cyclohexyl-2-oxoethyl)-5-(3,6-dimethylpyridazin-4-yl)thiophene-2-carboxamide]	12%	18 nM	0.7	13 nM	–
O=C(N[C@H](C(=O)N1C[C@H](Cl)[C@H]2OCC(=O)[C@H]21)C1CCCCC1)c1cnc(-c2ccnnc2)o1 [Example 21, N-((S)-2-((3aS,6S,6aS)-6-chloro-3-oxotetrahydro-2H-furo[3,2-b]pyrrol-4(5H)-yl)-1-cyclohexyl-2-oxoethyl)-2-(pyridazin-4-yl)oxazole-5-carboxamide]	15%	–	1.9	–	–
Cc1nccc(-c2ccc(C(=O)N[C@H](C(=O)N3C[C@H](Cl)[C@H]4OCC(=O)[C@H]43)C3CCCCC3)s2)n1 [Example 29, N-((S)-2-((3aS,6S,6aS)-6-chloro-3-oxotetrahydro-2H-furo[3,2-b]pyrrol-4(5H)-yl)-1-cyclohexyl-2-oxoethyl)-5-(2-methylpyrimidin-4-yl)thiophene-2-carboxamide]	6%	–	26.4	–	–
COc1ccc(-c2ccc(C(=O)N[C@H](C(=O)N3C[C@H](Cl)[C@H]4OCC(=O)[C@H]43)C3CCCCC3)s2)nn1 [Example 34, N-((S)-2-((3aS,6S,6aS)-6-chloro-3-oxotetrahydro-2H-furo[3,2-b]pyrrol-4(5H)-yl)-1-cyclohexyl-2-oxoethyl)-5-(6-methoxypyridazin-3-yl)thiophene-2-carboxamide]	15%	–	21.5	–	–
O=C(N[C@H](C(=O)N1C[C@H](Cl)[C@H]2OCC(=O)[C@H]21)C1CCCCC1)c1ccc(-c2cccnc2)o1 [Example 10, N-((S)-2-((3aS,6S,6aS)-6-chloro-3-oxotetrahydro-2H-furo[3,2-b]pyrrol-4(5H)-yl)-1-cyclohexyl-2-oxoethyl)-5-(pyridin-3-yl)furan-2-carboxamide]	16%	–	11.3	–	–
O=C(N[C@H](C(=O)N1C[C@H](Cl)[C@H]2OCC(=O)[C@H]21)C1CCCCC1)c1nnc(-c2ccncc2)s1 [Example 28, N-((S)-2-((3aS,6S,6aS)-6-chloro-3-oxotetrahydro-2H-furo[3,2-b]pyrrol-4(5H)-yl)-1-cyclohexyl-2-oxoethyl)-5-(pyridin-4-yl)-1,3,4-thiadiazole-2-carboxamide]	14%	–	–	–	83%

— patent publication US9725459B2, “3-oxo-tetrahydro-furo[3,2-B]pyrrol-4(5H)-yl) derivatives I” (GRÜNENTHAL GMBH, priority 2014, dated 2017)
